# Measurements published in US20090311217A1, “3-SUBSTITUTED-1H-INDOLE COMPOUNDS, THEIR USE AS MTOR KINASE AND PI3 KINASE INHIBITORS, AND THEIR SYNTHESES” (priority 2008, published 2009).
# Read-outs that look alike come from different tables or passages of the source.
# Legend:
# Format in all cases: biochemical
# human TOR = biological target: T1, human TOR (Homo sapiens, UniProt P42345); test: mTOR enzyme assay (DELFIA, His6-S6K substrate); conditions: read-out: mTOR Kinase Avg. IC50
# T1 construct: FLAG
# PI3K-alpha = PI3K-alpha (Homo sapiens, UniProt P42336); test: PI3K-alpha fluorescence polarization assay
# PI3K-alpha, sequence (P42336 whole entry, species assumed): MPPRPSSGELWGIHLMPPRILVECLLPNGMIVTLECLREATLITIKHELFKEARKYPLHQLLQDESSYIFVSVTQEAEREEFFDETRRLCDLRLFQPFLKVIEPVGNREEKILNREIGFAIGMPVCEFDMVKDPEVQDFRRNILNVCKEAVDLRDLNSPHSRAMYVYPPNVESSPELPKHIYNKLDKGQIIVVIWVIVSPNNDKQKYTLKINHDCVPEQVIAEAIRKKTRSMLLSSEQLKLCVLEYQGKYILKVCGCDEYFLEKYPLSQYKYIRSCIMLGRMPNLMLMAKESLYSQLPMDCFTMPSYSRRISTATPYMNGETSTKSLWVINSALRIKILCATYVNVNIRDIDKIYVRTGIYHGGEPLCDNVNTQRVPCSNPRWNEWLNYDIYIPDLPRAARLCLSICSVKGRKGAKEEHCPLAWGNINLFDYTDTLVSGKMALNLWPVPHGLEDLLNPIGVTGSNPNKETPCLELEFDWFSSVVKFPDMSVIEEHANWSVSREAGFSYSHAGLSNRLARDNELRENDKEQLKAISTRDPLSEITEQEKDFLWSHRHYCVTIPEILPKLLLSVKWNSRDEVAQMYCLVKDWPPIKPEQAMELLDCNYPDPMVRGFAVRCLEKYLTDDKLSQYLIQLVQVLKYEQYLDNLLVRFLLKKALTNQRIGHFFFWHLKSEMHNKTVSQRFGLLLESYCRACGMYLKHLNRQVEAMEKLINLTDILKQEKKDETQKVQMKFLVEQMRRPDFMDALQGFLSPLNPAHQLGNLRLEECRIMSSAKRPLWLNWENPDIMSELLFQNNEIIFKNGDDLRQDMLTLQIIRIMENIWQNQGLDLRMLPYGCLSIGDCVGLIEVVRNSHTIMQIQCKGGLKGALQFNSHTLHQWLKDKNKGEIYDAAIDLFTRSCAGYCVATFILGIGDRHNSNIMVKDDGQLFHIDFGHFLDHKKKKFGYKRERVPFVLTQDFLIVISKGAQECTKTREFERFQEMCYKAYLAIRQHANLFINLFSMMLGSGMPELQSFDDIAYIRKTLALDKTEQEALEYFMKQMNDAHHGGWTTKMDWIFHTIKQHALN
# PI3K-alpha, sequence (P27986 whole entry partner, species assumed): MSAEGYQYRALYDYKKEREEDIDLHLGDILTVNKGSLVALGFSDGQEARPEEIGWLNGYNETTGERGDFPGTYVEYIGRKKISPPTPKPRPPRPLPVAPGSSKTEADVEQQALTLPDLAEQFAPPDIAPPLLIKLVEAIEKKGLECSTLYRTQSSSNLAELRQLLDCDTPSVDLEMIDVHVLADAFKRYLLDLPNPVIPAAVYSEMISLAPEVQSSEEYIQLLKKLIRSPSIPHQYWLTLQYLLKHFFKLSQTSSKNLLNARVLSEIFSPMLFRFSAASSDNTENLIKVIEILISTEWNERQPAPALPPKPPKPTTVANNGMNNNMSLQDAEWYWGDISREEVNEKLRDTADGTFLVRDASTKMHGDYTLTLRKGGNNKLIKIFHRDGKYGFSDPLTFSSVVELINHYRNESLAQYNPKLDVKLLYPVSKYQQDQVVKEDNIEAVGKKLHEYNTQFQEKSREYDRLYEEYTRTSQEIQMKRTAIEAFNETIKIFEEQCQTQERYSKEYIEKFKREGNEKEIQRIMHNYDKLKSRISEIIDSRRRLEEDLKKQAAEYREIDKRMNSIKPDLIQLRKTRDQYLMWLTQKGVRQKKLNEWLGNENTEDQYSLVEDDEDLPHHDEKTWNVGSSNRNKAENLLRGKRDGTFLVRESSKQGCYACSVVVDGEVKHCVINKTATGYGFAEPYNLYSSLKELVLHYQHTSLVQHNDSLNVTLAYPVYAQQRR
# PI3K-gamma = PI3K-gamma (Homo sapiens, UniProt P48736); test: PI3K-gamma fluorescence polarization assay; conditions: PI3Kγ Avg. IC50
# PI3K-gamma, sequence (P48736 whole entry, species assumed, the tested form may be a part): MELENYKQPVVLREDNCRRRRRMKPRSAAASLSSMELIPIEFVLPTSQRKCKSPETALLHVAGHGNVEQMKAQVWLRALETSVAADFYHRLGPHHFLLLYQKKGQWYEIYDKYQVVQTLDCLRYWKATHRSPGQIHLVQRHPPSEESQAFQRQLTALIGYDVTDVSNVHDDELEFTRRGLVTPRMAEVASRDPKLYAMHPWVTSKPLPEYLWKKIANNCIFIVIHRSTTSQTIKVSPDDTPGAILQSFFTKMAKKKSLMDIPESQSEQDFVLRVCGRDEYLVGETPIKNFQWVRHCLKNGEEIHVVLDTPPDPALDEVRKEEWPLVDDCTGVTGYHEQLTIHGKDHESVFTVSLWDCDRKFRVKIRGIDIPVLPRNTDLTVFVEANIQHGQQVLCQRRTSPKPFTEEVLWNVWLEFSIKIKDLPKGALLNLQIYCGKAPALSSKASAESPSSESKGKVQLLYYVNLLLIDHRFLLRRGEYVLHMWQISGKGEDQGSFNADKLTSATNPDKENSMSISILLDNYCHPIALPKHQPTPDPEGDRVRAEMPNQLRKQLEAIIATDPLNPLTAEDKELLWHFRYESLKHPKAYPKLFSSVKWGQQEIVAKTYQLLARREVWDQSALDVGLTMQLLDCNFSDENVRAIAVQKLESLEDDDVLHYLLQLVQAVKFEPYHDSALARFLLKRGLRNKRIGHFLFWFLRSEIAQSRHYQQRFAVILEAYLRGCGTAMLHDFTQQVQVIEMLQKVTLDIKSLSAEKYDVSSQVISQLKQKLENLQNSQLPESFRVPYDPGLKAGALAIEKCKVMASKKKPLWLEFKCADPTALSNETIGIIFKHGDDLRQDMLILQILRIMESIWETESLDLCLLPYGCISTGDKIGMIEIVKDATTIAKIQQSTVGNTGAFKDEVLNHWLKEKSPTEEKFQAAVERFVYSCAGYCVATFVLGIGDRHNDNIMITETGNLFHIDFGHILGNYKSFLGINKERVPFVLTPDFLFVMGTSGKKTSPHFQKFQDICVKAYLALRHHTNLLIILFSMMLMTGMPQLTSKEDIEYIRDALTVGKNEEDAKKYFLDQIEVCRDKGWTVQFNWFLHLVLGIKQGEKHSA
# In short: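 Inhibition is derived from a polarization signal: after a 1 h, 25° C kinase step (25 μM ATP, 2.5 μM diC8-PIP2, pH 7), EDTA stops the reaction and the GRP1 PH domain/TMR-IP4 pair reports lipid product.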
SMILES,IC50 (human TOR),IC50 (PI3K-alpha; read-out: PI3Kα Avg. IC50),IC50 (PI3K-gamma),IC50 (PI3K-alpha; PI3Kα Avg. IC50)
"CCn1c(C)c(/C=C2\Oc3ccc(NC(=O)Nc4ccc(S(=O)(=O)N5CCN(C)CC5)cc4)cc3C2=O)c2cc(OC)ccc21 [Compound 677, 1-{(2Z)-2-[(1-ethyl-5-methoxy-2-methyl-1H-indol-3-yl)methylidene]-3-oxo-2,3-dihydro-1-benzofuran-5-yl}-3-{4-[(4-methylpiperazin-1-yl)sulfonyl]phenyl}urea]",0.595 µM,0.019 µM,0.144 µM,
"O=C1C(=Cc2c(-c3ccccc3)n(CCC3CCNCC3)c3ccccc23)Oc2cc(O)cc(O)c21 [Example 158, 4,6-dihydroxy-2-{[2-phenyl-1-(2-piperidin-4-ylethyl)-1H-indol-3-yl]methylene}-1-benzofuran-3(2H)-one]",4.6 µM,2.28 µM,4.88 µM,
"Cn1cc(C=C2Oc3cc(O)cc(O)c3C2=O)c2cc([N+](=O)[O-])ccc21 [Example 228, 4,6-dihydroxy-2-[(1-methyl-5-nitro-1H-indol-3-yl)methylene]-1-benzofuran-3(2H)-one]",0.98 µM,3.57 µM,> 10 µM,
"COc1cc(F)c2[nH]c(-c3c(C)nn(C)c3C)c(/C=C3\Oc4ccc(NC(=O)NCCN5CCCC5)cc4C3=O)c2c1 [Compound 727, 1-[(2Z)-2-{[7-fluoro-5-methoxy-2-(1,3,5-trimethyl-1H-pyrazol-4-yl)-1H-indol-3-yl]methylidene}-3-oxo-2,3-dihydro-1-benzofuran-5-yl]-3-(2-pyrrolidin-1-ylethyl)urea]",0.048 µM,0.00145 µM,0.00625 µM,
"CNCCNC(=O)c1ccc(NC(=O)Nc2ccc3c(c2)C(=O)/C(=C/c2c(C)n(CCN4CCN(C)CC4)c4ccc(OC)cc24)O3)cc1 [Compound 669, 4-({[(2Z)-2-({5-methoxy-2-methyl-1-[2-(4-methylpiperazin-1-yl)ethyl]-1H-indol-3-yl}methylidene)-3-oxo-2,3-dihydro-1-benzofuran-5-yl]carbamoyl}amino)-N-[2-(methylamino)ethyl]benzamide]",0.004 µM,0.0006 µM,0.029 µM,
"CNC(=O)Nc1ccc(-c2cccc3c2c(/C=C2\Oc4cc(O)cc(O)c4C2=O)cn3C)cc1 [Example 393, 1-(4-{3-[(Z)-(4,6-Dihydroxy-3-oxo-1-benzofuran-2(3H)-ylidene)methyl]-1-methyl-1H-indol-4-yl}phenyl)-3-methylurea]",0.0235 µM,0.608 µM,2.52 µM,
"COc1ccc2c(c1)c(/C=C1\Oc3cc(O)cc(O)c3C1=O)c(C(=O)N(C)C)n2CCn1ccnc1 [Example 314, 3-[(Z)-(4,6-Dihydroxy-3-oxo-1-benzofuran-2(3H)-ylidene)methyl]-1-[2-(1H-imidazol-1-yl)ethyl]-5-methoxy-N,N-dimethyl-1H-indole-2-carboxamide]",0.155 µM,0.029 µM,0.116 µM,
"COc1ccc2c(c1)c(/C=C1\Oc3cc(O)cc(Br)c3C1=O)c(C)n2CCN1CCN(C)CC1 [Example 429, (2Z)-4-Bromo-6-hydroxy-2-({5-methoxy-2-methyl-1-[2-(4-methylpiperazin-1-yl)ethyl]-1H-indol-3-yl}methylene)-1-benzofuran-3(2H)-one]",0.5 µM,0.0675 µM,3.13 µM,
"Cn1cc(/C=C2\Oc3c(Br)ccc(O)c3C2=O)c2c(-c3ccccc3)cccc21 [Example 428, (2Z)-7-Bromo-4-hydroxy-2-[(1-methyl-4-phenyl-1H-indol-3-yl)methylene]benzofuran-3(2H)-one]",> 20 µM,> 5 µM,> 5 µM,
"COc1ccc(-c2cccc3[nH]cc(/C=C4\Oc5cc(O)cc(O)c5C4=O)c23)cc1 [Example 371, (2Z)-4,6-dihydroxy-2-{[4-(4-methoxyphenyl)-1H-indol-3-yl]methylene}benzofuran-3(2H)-one]",0.73 µM,1.01 µM,0.763 µM,
"O=C1C(=Cc2c[nH]c3c(O)cccc23)Oc2cc(O)cc(O)c21 [Example 246, 4,6-dihydroxy-2-[(7-hydroxy-1H-indol-3-yl)methylene]-1-benzofuran-3(2H)-one]",17 µM,1.03 µM,> 10 µM,
"CN1CCN(CCn2cc(/C=C3\Oc4cc(O)cc(O)c4C3=O)c3c(-c4ccc(N(C)C)cc4)cccc32)CC1 [Example 438, (2Z)-2-({4-[4-(Dimethylamino)phenyl]-1-[2-(4-methylpiperazin-1-yl)ethyl]-1H-indol-3-yl}methylene)-4,6-dihydroxy-1-benzofuran-3(2H)-one]",> 20 µM,2.98 µM,9 µM,
"Cn1c(-c2ccccc2)c(/C=C2\Oc3cccc(O)c3C2=O)c2ccccc21 [Example 442, (2Z)-4-Hydroxy-2-[(1-methyl-2-phenyl-1H-indol-3-yl)methylene]benzofuran-3(2H)-one]",> 20 µM,> 5.1 µM,> 5.1 µM,
"Cn1cc(/C=C2\Oc3cc(O)cc(O)c3C2=O)c2c(-c3cccc(O)c3)cccc21 [Example 390, (2Z)-4,6-Dihydroxy-2-{[4-(3-hydroxyphenyl)-1-methyl-1H-indol-3-yl]methylene}-1-benzofuran-3(2H)-one]",0.09 µM,1.12 µM,2.04 µM,
"COc1ccc2c(c1)c(/C=C1\Oc3cc(O)ccc3C1=O)c(C)n2CCN1CCCCCC1 [Example 470, (2Z)-2-{[1-(2-Azepan-1-ylethyl)-5-methoxy-2-methyl-1H-indol-3-yl]methylene}-6-hydroxy-1-benzofuran-3(2H)-one]",2.3 µM,0.0355 µM,0.656 µM,
"COc1ccc2c(c1)c(/C=C1\Oc3ccc(NC(=O)Nc4ccc(C(=O)N(C)CCN(C)C)cc4)cc3C1=O)c(C)n2CCN1CCN(C)CC1 [Compound 649, N-[2-(dimethylamino)ethyl]-4-({[(2Z)-2-({5-methoxy-2-methyl-1-[2-(4-methylpiperazin-1-yl)ethyl]-1H-indol-3-yl}methylene)-3-oxo-2,3-dihydro-1-benzofuran-5-yl]carbamoyl}amino)-N-methylbenzamide]",0.031 µM,0.0004 µM,0.019 µM,
"CCn1c(C)c(/C=C2\Oc3ccc(NC(=O)Nc4ccc(C(=O)C5CCN(C)CC5)cc4)cc3C2=O)c2cc(OC)ccc21 [Compound 651, 1-{(2Z)-2-[(1-ethyl-5-methoxy-2-methyl-1H-indol-3-yl)methylene]-3-oxo-2,3-dihydro-1-benzofuran-5-yl}-3-{4-[(1-methylpiperidin-4-yl)carbonyl]phenyl}urea]",0.783 µM,0.0009 µM,0.0197 µM,
"O=C1/C(=C/c2c(-c3ccccc3)[nH]c3ccccc23)Oc2c(O)cccc21 [Example 67, (2Z)-7-hydroxy-2-[(2-phenyl-1H-indol-3-yl)methylene]-1-benzofuran-3(2H)-one]",8.4 µM,0.328 µM,0.302 µM,
"Cn1cc(/C=C2\Oc3cc(O)cc(O)c3C2=O)c2c(-c3ccc(O)cc3)cccc21 [Example 379, (2Z)-4,6-Dihydroxy-2-{[4-(4-hydroxyphenyl)-1-methyl-1H-indol-3-yl]methylene}-1-benzofuran-3(2H)-one]",0.029 µM,0.561 µM,1.09 µM,
"CNCCn1c(-c2c(C)nn(C)c2C)c(/C=C2\Oc3ccc(NC(=O)NC)cc3C2=O)c2cc(OC)ccc21 [Compound 672, 1-[(2Z)-2-({5-methoxy-1-[2-(methylamino)ethyl]-2-(1,3,5-trimethyl-1H-pyrazol-4-yl)-1H-indol-3-yl}methylidene)-3-oxo-2,3-dihydro-1-benzofuran-5-yl]-3-methylurea]",0.027 µM,0.0105 µM,0.18 µM,
"CNCCNC(=O)c1ccc(NC(=O)Nc2ccc3c(c2)C(=O)/C(=C/c2c(C)n(C)c4ccc(OC)cc24)O3)cc1 [Compound 661, 4-[({(2Z)-2-[(5-methoxy-1,2-dimethyl-1H-indol-3-yl)methylene]-3-oxo-2,3-dihydro-1-benzofuran-5-yl}carbamoyl)amino]-N-[2-(methylamino)ethyl]benzamide]",0.006 µM,0.0003 µM,0.002 µM,
"CNC(=O)Nc1ccc2c(c1)C(=O)/C(=C/c1c(-c3cnn(C)c3C)[nH]c3ccc(OC)cc13)O2 [Compound 723, 1-[(2Z)-2-{[2-(1,5-dimethyl-1H-pyrazol-4-yl)-5-methoxy-1H-indol-3-yl]methylidene}-3-oxo-2,3-dihydro-1-benzofuran-5-yl]-3-methylurea]",0.003 µM,0.001 µM,0.0041 µM,
"O=C1/C(=C/c2c(-c3ccc4ccccc4c3)[nH]c3ccccc23)Oc2cc(O)cc(O)c21 [Example 45, (2Z)-4,6-dihydroxy-2-{[2-(2-naphthyl)-1H-indol-3-yl]methylene}-1-benzofuran-3(2H)-one]",0.28 µM,,1.82 µM,0.799 µM
"Cn1cc(/C=C2\Oc3cc(O)cc(O)c3C2=O)c2c(-c3ccc(C#N)nc3)cccc21 [Example 397, 5-{3-[(Z)-(4,6-Dihydroxy-3-oxo-1-benzofuran-2(3H)-ylidene)methyl]-1-methyl-1H-indol-4-yl}pyridine-2-carbonitrile]",0.02 µM,1.84 µM,8.53 µM,
"COc1ccc2c(c1)c(/C=C1\Oc3cc(-c4ccc(NC(C)=O)cc4)ccc3C1=O)cn2CCCN(C)C [Example 426, N-{4-[(2Z)-2-({1-[3-(Dimethylamino)propyl]-5-methoxy-1H-indol-3-yl}methylene)-3-oxo-2,3-dihydro-1-benzofuran-6-yl]phenyl}acetamide]",> 20 µM,6.25 µM,> 10 µM,
